In ChEMBL document CHEMBL1142020, “2-substituted-4-aryl-6,7,8,9-tetrahydro-5H-pyrimido[4,5-b][1,5]oxazocin-5-one as a structurally new NK1 antagonist” (2005) one finds Effect and Kb data, which are given here for 4 compounds.

By Kb is commonly meant the affinity of an antagonist, worked out from how it opposes an agonist.

SMILES strings stand for the structures.

Assay [1] is described as follows: Effective bladder capacity increasing effect of compound (0.3 mg/kg i.v.) expressed as the ratio of increase in effective bladder capacity compared to saline treated animals in vivo. It counts as functional, Cavia porcellus.
Assay [2] deals with Substance-P receptor (Cavia porcellus) (UniProt P30547). Briefly: Antagonist activity against tachykinin receptor 1 activity in guinea pig ileum in vitro. In kind it is functional, tissue-based.
Substance-P receptor (Cavia porcellus), sequence (P30547 whole entry): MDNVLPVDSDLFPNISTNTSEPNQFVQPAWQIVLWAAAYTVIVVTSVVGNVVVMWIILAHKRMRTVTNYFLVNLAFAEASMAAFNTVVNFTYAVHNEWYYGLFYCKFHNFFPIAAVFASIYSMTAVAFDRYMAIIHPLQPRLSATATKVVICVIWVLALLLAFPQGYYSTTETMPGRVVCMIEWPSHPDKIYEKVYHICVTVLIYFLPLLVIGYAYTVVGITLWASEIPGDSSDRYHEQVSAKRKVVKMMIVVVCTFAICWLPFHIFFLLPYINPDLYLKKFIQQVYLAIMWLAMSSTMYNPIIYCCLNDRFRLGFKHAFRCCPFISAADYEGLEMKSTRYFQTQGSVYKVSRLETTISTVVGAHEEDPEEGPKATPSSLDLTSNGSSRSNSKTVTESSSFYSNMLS

Consider `Cc1ccccc1-c1cc(N2CCC(N3CCCC3)CC2)nc2c1C(=O)N(Cc1cc(C(F)(F)F)cc(C(F)(F)F)c1)CCCO2`, for which the Effect in assay [1] stood at 24.2%.

Consider `Cc1ccccc1-c1nc(N2CCC(N3CCCC3)CC2)cc2c1C(=O)N(Cc1cc(C(F)(F)F)cc(C(F)(F)F)c1)CCCO2`, for which the Kb in assay [2] was 0.339 nM. Moreover, the Effect in assay [1] was 3.97%.

With `Cc1ccc(-c2c3n(c(=O)c4ncccc24)CC[C@@H](C)CN(Cc2cc(C(F)(F)F)cc(C(F)(F)F)c2)C3=O)cc1`, the antagonist dissociation constant (Kb) in assay [2] was found to be 0.27 nM. For the same compound, the Effect in assay [1] was determined as 12%.

`Cc1ccccc1-c1nc(N2CCC(N3CCCC3)CC2)nc2c1C(=O)N(Cc1cc(C(F)(F)F)cc(C(F)(F)F)c1)CCCO2` gave a Kb in assay [2] of 0.166 nM. In addition, the Effect in assay [1] was 33.4%.
